Measurements reported in the NIST ThermoML archive (doi:10.1016/j.jct.2017.11.009).
Numbers after ± are expanded uncertainties.

Experiment: Boiling temperature at pressure P
Conditions: 101.3 kPa; Liquid; Ebulliometric method (Recirculating still)

Structure (SMILES)	Boiling temperature at pressure P [°C]
OCCO [1,2-ethanediol]	197.17 ± 0.4
C=CCO [2-propenol]	96.80 ± 0.4
CNC=O [N-methylformamide]	199.10 ± 0.4
CN1CCCC1=O [N-methylpyrrolidone]	202.29 ± 0.4
